Results taken from PubChem BioAssay (NCI).
“And” between values parts separate entries of the source, which are not always exact repeats. Identical values can stand only once.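 Exposure lasted 48 hours, with cells grown in 96-well plates and compounds tested at five concentrations. Abbreviation: GI50, concentration required for 50% inhibition of growth. Definition used: TGI = concentration required for complete inhibition of growth.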

Experiments:
Experiment in all cases: NCI anticancer screen, dose series, 48 h
CCRF-CEM leukemia = system: CCRF-CEM leukemia
786-0 renal = system: 786-0 renal
SK-MEL-2 melanoma = system: SK-MEL-2 melanoma
COLO 205 colon = system: COLO 205 colon
ACHN renal = system: ACHN renal
HL-60(TB) leukemia = system: HL-60(TB) leukemia
PC-3 prostate = system: PC-3 prostate
SNB-19 CNS = system: SNB-19 CNS
LOX IMVI melanoma = system: LOX IMVI melanoma
NCI/ADR-RES ovarian = system: NCI/ADR-RES ovarian

Structure (SMILES) | GI50 (CCRF-CEM leukemia) | TGI (CCRF-CEM leukemia) | GI50 (786-0 renal) | TGI (786-0 renal) | GI50 (SK-MEL-2 melanoma) | TGI (SK-MEL-2 melanoma) | GI50 (COLO 205 colon) | TGI (COLO 205 colon) | GI50 (ACHN renal) [µM] | TGI (ACHN renal) | GI50 (HL-60(TB) leukemia) | TGI (HL-60(TB) leukemia) | GI50 (PC-3 prostate) | TGI (PC-3 prostate) [µM] | GI50 (SNB-19 CNS) | TGI (SNB-19 CNS) | GI50 (LOX IMVI melanoma) [µM] | TGI (LOX IMVI melanoma) | GI50 (NCI/ADR-RES ovarian) [µM] | TGI (NCI/ADR-RES ovarian) [µM]
COc1cccc(C(=O)Nc2ccc(CN3CCc4nc5cc(OC)c(OC)cc5cc43)cc2)c1 | 3.35 µM | 36.5 µM | 3.02 µM | 9.71 µM | 8.8 µM | 22.4 µM | 2.69 µM | 7.03 µM | 3.08 | > 100 µM | 4.92 µM | 27.7 µM | 3.14 µM | > 100 | 8.12 µM | > 100 µM | 2.37 | 6.5 µM | 4.48 | > 100
CCN(CC)C(=O)CC1=C(C)/C(=C/c2[nH]c(-c3ccc[nH]3)cc2OC)N=C1C | 0.258 µM | 35 µM | 0.549 µM | 3.36 µM | 0.275 µM | 0.799 µM | 0.296 µM | 10.1 µM | 0.374 | 1.97 µM | 1.82 µM | 61.9 µM | 0.35 µM | 33 | 4.1 µM | > 100 µM | 0.199 | 0.513 µM | 0.563 | 14.8
NC(C/[N+]([O-])=N/O)C(=O)O (configuration not stated) | > 29.3 µM and 11.3 µM | > 100 µM and 418 µM | 1.16 µM and 9.72 µM and 4.15 µM | > 500 µM | 115 µM | > 100 µM and 359 µM | 21.6 µM and 69.7 µM and 17.4 µM | > 62.7 µM and > 100 µM and 256 µM | 2.98 | > 500 µM | – | > 100 µM and 176 µM | 6.71 µM and 3.64 µM and 4.92 µM | > 500 | 0.595 µM and 5.93 µM and 1.36 µM | > 100 µM and 268 µM | – | > 100 µM and 153 µM | – | > 434
C=CCn1c(=O)c2cnc(Nc3ccc(N4CCN(C)CC4)cc3)nc2n1-c1ccc2c(n1)[C@@](O)(CC)CC2 | 0.2 µM | 1.81 µM | 0.271 µM | 12.2 µM | 0.332 µM | 2.44 µM | 0.336 µM | 2.57 µM | 0.161 | 36.8 µM | 0.189 µM | 1.3 µM | 2.24 µM | > 100 | 1.85 µM | > 100 µM | 1.02 | 9.89 µM | 5.69 | 33.5
COC(=O)CCC(C)[C@H]1CCC2C3C(C[C@H](OC(C)=O)[C@@]21C)[C@@]1(C)CCC2(C[C@H]1C[C@H]3OC(C)=O)OOC1(CCC(C)CC1)OO2 (some centres not stated) | – | > 100 µM | 9.1 µM and 27.6 µM | > 100 µM and 95.9 µM | 21.9 µM and 64.9 µM | > 100 µM | 8.13 µM and 48.8 µM | > 100 µM | – | 61.7 µM and > 100 µM | 3.36 µM and 14.9 µM | 27.7 µM and > 100 µM | 2.98 µM and 7.43 µM | > 100 | – | > 100 µM | – | > 100 µM | – | > 100
CCOC(=O)C1=C(C)NC2SC(=O)/C(=C\c3ccccc3Cl)N2C1c1ccccc1 (configuration not stated) | > 100 µM | > 100 µM | > 100 µM | > 100 µM | > 100 µM | > 100 µM | > 100 µM | > 100 µM | > 100 | > 100 µM | 59.5 µM | > 100 µM | 73.3 µM | > 100 | > 100 µM | > 100 µM | > 100 | > 100 µM | > 100 | > 100
COc1cc(N2CCN(C(C)C)CC2)ccc1Nc1nc(Nc2cccc3ncccc23)c2cc[nH]c2n1 | 6.36 µM | > 22.4 µM | 5.27 µM | 12.4 µM | 4.63 µM | 11.5 µM | 1.38 µM | 5.96 µM | 7.45 | > 25 µM | 3.26 µM | 14.8 µM | 8.99 µM | > 25 | 8.99 µM | > 25 µM | 3.3 | 6.95 µM | 8.45 | > 25
